Assay results reported in patent US20220249441A1, “Homodimeric Tobramycin Adjuvant Repurposes Novobiocin as an Effective Antibacterial Agent Against Gram-Negative Bacteria” (priority 2019, published 2022).
≈ marks a conversion by molar mass, not a printed value. Values belong to the compound of their own block, whether it stands above or below them.

Columns and labels:
[1] = system: A. baumannii ATCC 17978 and resistant mutants; assay: microbe, parasite or virus in culture; assay type: cell-based, Acinetobacter baumannii; settings: Acinetobacter baumannii
Method: (§1) Antimicrobial Susceptibility Assay. The in vitro antimicrobial activity of all compounds/antibiotics against a panel of bacteria was evaluated by microbroth dilution method in accordance with the Clinical and Laboratory Standards Institute (CLSI) guidelines (using ATCC strains as quality control strains) (54). Overnight grown bacterial cultures were diluted in saline to achieve a 0.5 McFarland turbidity, followed by 1:50 dilution in Mueller-Hinton broth (MHB) for inoculation to a final concentration of approximately 5×10^5 CFU/mL. […] The lowest concentration that prevented the visible growth of bacteria was defined as the MIC for each antimicrobial agent. The broth with or without bacterial cells was used as positive or negative control, respectively.
Development of Resistance Study. […] Tobramycin and colistin were included as controls. At 24-hour intervals, the cultures were assessed for growth. […] This serial passaging was repeated for 8 days.

P. aeruginosa = assay: Checkerboard assay (antibiotic + adjuvant combination MIC); assay type: cell-based, Pseudomonas aeruginosa; settings: for MIC Alone: β-lactam antibiotic alone
Method: as §1
Checkerboard Assay. Combination studies with different antibiotics were performed in 96-well plates as previously described (19). Briefly, the antibiotic of interest was serially diluted in MHB along the abscissa while the adjuvant (tobramycin homodimer) was serially diluted in MHB along the ordinate. This creates a 10×7 matrices wherein each well consists of a combination of different antibiotic and adjuvant concentrations. Overnight grown bacterial cultures were diluted in saline to achieve a 0.5 McFarland turbidity, followed by 1:50 dilution in Mueller-Hinton broth (MHB) for inoculation to a final concentration of approximately 5×10^5 CFU/mL. […] MIC was recorded as wells with the lowest concentration of drugs with no bacterial growth. The fractional inhibitory concentration (FIC) for each antibiotic was calculated by dividing the MIC of the antibiotic in the presence of adjuvant by the MIC of the antibiotic alone. Similarly, the FIC of adjuvant was calculated by dividing the MIC of the adjuvant in the presence of antibiotic by the MIC of the adjuvant alone. FIC index is the sum of both FICs. FIC indices of ≤0.5 were deemed synergistic; >0.5-4, no interaction; and >4, antagonistic.

[2] = ATCC17978, 18 h, Mutant C (seven serial passages, sub-MICs novobiocin + 7.1 μM compound 1)
[3] = ATCC17978, Mutant A (seven serial passages, sub-MICs novobiocin)
[4] = ATCC17978, Mutant B (seven serial passages, sub-MICs colistin)
[5] = ATCC17978, Wild-type A. baumannii ATCC 17978

SMILES: O=C(N[C@H](CO)[C@H](O)c1ccc([N+](=O)[O-])cc1)C(Cl)Cl [Chloramphenicol]
MIC [1, 2]: 64 µg/mL
MIC [1, 3]: 32 µg/mL (≈ 99 µM)
MIC [1, 4]: 8 µg/mL (≈ 24.8 µM)
MIC [1, 5]: 64 µg/mL (≈ 198 µM)

SMILES: C[C@@H](O)[C@H]1C(=O)N2C(C(=O)O)=C(SCCN=CN)C[C@H]12 [Imipenem, reference compound]
MIC Alone (P. aeruginosa; P. aeruginosa PAO1): 4 µg/mL
MIC of IPM alone (P. aeruginosa; PA 259-96918): 64 µg/mL
MIC of IPM alone (P. aeruginosa; PA 260-97103): 16 µg/mL
MIC of IPM alone (P. aeruginosa; PA 262-101856): 32 µg/mL
MIC of IPM alone (P. aeruginosa; PA 264-104354): 16 µg/mL
MIC of IPM alone (P. aeruginosa; PA 86052): 32 µg/mL
MIC of IPM alone (P. aeruginosa; PA 88949): 64 µg/mL
MIC of IPM alone (P. aeruginosa; PA 91433): 8 µg/mL
MIC of IPM alone (P. aeruginosa; PA 100036): 8 µg/mL
MIC of IPM alone (P. aeruginosa; PA 101243): 8 µg/mL
MIC of IPM alone (P. aeruginosa; PA 101885): 4 µg/mL
MIC of IPM alone (P. aeruginosa; PA 107092): 64 µg/mL
MIC of IPM alone (P. aeruginosa; PA 108590): 16 µg/mL
MIC of IPM alone (P. aeruginosa; PA 109084): 16 µg/mL
MIC of IPM alone (P. aeruginosa; PA 114228): 8 µg/mL
MIC of IPM alone (P. aeruginosa; PAO1): 4 µg/mL
MIC of IPM alone (P. aeruginosa; PAO200 (efflux-deficient)): 4 µg/mL
MIC of IPM alone (P. aeruginosa; PAO750 (efflux-deficient)): 4 µg/mL

SMILES: C#CCCCCO[C@@H]1[C@@H](O[C@H]2O[C@H](CO)[C@@H](O)[C@H](N)[C@H]2O)[C@H](N)C[C@H](N)[C@H]1O[C@H]1O[C@H](CN)[C@@H](O)C[C@H]1N.O=C(O)C(F)(F)F.O=C(O)C(F)(F)F.O=C(O)C(F)(F)F.O=C(O)C(F)(F)F.O=C(O)C(F)(F)F [Compound 4, 5-O-(Hexyne)-Tobramycin]
potentiation of novobiocin (P. aeruginosa; P. aeruginosa PAO1): did not potentiate

SMILES: CN(C)c1ccc(O)c2c1C[C@H]1C[C@H]3[C@H](N(C)C)C(O)=C(C(N)=O)C(=O)[C@@]3(O)C(O)=C1C2=O [Minocycline]
MIC [1, 2]: 0.125 µg/mL
MIC [1, 3]: 0.5 µg/mL (≈ 1.09 µM)
MIC [1, 4]: < 0.031 µg/mL
MIC [1, 5]: 0.125 µg/mL (≈ 0.273 µM)

MIC Alone (P. aeruginosa; P. aeruginosa PAO1): 8 µg/mL
SMILES: CCN1CCN(C(=O)N[C@@H](C(=O)N[C@@H]2C(=O)N3[C@@H]2SC(C)(C)[C@@H]3C(=O)O)c2ccccc2)C(=O)C1=O [Piperacillin, reference compound]
